Where a name gives a salt, the structure may show the parent alone.
What was measured:
[1] = target: Human recombinant PDE10A2 (Homo sapiens (Human), UniProt Q9Y233); assay: In vitro hPDE10a (human recombinant PDE10A2, scintillation proximity assay); type: biochemical; conditions: human recombinant PDE10A2, 60 nM cAMP, 60 min at room temperature; read-out: hPDE10a2 IC50
Protocol: Human recombinant PDE10A2 was expressed in Sf9 cells, using a recombinant baculovirus construct containing the full length sequence containing a 6×His sequence following the start Met to allow metal affinity purification of the recombinant protein. Cells were harvested and the phosphodiesterase protein was purified by metal chelate chromatography on Ni-sepharose 6FF.
The affinity of the compounds of Formula (I) for phophodiesterases (PDE) was measured by a scintillation proximity assay (SPA). PDE Yttrium Silicate SPA beads allow PDE activity to be measured by direct binding of the primary phosphate groups of non-cyclic AMP or GMP to the beads via a complex iron chelation mechanism. The amount of bound tritiated product ([^3H]-AMP) is measured by liquid scintillation counting.
The compounds were dissolved and diluted in 100% DMSO in polystyrene plates to a concentration of 100-fold the final concentration in the assay. Human PDE10A enzyme solution (10 μL) was added to 20 μL, of incubation buffer (50 mM Tris pH 7.8, 8.3 mM MgCl2, 1.7 mM EGTA), 10 μL, substrate solution consisting of a mixture of non-tritiated and tritiated substrate (60 nM cAMP, 0.008 μCi ^3H-cAMP), and 0.4 μL, compound in 100% DMSO in a 384-well plate, and incubated for 60 min at room temperature. After incubation, the reaction was stopped with 20 μL, of stop solution, consisting of PDE SPA beads (17.8 mg beads/mL in 18 mM zinc sulphate). After sedimentation of the beads for 30 min, the radioactivity was measured in a Perkin Elmer Topcount scintillation counter and results were expressed as cpm. To measure the low control, no enzyme was added to the reaction mixture.
Data were calculated as the percentage of inhibition of total activity measured in the absence of test compound (% control).

[2] = target: Rat recombinant PDE10a (rPDE10a) (Rattus norvegicus (Rat), UniProt Q9QYJ6); assay: In vitro assay PDE10a (rat recombinant PDE10a, SPA); type: biochemical; conditions: 60 nM cAMP, 60 min at rt, read-out: rPDE10a2 IC50
Sequence of Rat recombinant PDE10a (rPDE10a) (Q9QYJ6 whole entry): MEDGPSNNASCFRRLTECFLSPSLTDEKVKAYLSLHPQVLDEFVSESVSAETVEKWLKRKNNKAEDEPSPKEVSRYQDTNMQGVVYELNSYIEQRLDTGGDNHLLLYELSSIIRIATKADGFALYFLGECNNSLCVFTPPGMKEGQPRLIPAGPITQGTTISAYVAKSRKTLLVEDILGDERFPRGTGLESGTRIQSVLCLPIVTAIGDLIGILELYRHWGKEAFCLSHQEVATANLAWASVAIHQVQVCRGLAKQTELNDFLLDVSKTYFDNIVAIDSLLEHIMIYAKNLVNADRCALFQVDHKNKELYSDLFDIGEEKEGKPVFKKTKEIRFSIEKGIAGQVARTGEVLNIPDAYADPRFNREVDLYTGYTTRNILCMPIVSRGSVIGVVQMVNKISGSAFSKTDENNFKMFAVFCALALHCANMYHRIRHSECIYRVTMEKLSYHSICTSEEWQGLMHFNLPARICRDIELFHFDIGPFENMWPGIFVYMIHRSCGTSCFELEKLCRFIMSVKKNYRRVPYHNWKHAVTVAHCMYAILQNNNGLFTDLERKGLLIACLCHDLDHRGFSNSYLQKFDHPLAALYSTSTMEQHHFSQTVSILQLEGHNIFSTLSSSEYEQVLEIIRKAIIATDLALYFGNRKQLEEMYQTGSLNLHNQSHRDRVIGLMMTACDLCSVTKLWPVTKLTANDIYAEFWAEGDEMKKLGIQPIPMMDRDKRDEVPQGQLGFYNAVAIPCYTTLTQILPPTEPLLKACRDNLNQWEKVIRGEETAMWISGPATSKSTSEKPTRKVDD
Protocol: Rat recombinant PDE10a (rPDE10a) was expressed in Sf9 cells using a recombinant rPDE10a baculovirus construct. Cells were harvested after 48 h of infection and the rPDE10a protein was purified by metal chelate chromatography on Ni-sepharose 6FF. Tested compounds were dissolved and diluted in 100% DMSO to a concentration 100 fold of the final concentration in the assay. Compound dilutions (0.4 μL) were added in 384 well plates to 20 μL of incubation buffer (50 mM Tris pH 7.8, 8.3 mM MgCl2, 1.7 mM EGTA). 10 μL of rPDE10a enzyme in incubation buffer was added and the reaction was started by addition of 10 μL substrate to a final concentration of 60 nM cAMP and 0.008 μCi ^3H-cAMP. The reaction was incubated for 60 min at rt. After incubation, the reaction was stopped with 20 μL of 17.8 mg/mL PDE SPA beads. After sedimentation of the beads during 30 min the radioactivity was measured in a Perkin Elmer Topcount scintillation counter and results were expressed as cpm. For blank values the enzyme was omitted from the reaction and replaced by incubation buffer. Control values were obtained by addition of a final concentration of 1% DMSO instead of compound.

Sequence of Human recombinant PDE10A2 (Q9Y233 267-1055): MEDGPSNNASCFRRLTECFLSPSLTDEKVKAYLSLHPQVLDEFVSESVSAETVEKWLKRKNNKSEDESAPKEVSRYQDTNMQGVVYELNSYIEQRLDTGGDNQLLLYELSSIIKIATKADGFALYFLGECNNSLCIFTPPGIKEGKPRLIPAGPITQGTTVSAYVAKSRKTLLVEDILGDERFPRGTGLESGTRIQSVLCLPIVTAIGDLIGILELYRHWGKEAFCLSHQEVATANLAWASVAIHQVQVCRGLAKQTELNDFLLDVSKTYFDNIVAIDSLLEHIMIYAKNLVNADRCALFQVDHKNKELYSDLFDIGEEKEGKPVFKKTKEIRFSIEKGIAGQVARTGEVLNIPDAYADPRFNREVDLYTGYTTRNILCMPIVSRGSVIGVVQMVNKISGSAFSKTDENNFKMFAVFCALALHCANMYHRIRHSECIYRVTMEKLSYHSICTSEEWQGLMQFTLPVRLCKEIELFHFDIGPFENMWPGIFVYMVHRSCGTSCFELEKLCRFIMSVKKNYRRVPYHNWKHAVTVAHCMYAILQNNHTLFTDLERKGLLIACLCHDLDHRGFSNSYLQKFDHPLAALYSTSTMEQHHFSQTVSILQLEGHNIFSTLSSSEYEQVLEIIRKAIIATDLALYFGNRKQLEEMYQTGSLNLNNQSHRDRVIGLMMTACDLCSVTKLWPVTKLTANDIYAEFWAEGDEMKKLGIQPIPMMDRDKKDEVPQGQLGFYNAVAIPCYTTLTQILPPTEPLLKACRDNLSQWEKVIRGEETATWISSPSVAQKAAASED

SMILES	IC50 [1] [nM]	IC50 [2] [nM]
O=C(O)c1ccc(-c2cnc(N3CCOCC3)c3nc(/C=C/c4ccc5ccccc5n4)cn23)nc1 [Cpd 6, (E)-6-(8-morpholino-2-(2-(quinolin-2-yl)vinyl)imidazo[1,2-a]pyrazin-5-yl)nicotinic acid hydrochloric acid salt]	12	14
COc1cccc(/C=C/c2cn3c(-c4ccc(C(=O)O)cc4)cnc(N4CCOCC4)c3n2)n1 [Cpd 7, (E)-4-(2-(2-(6-Methoxypyridin-2-yl)vinyl)-8-morpholinoimidazo[1,2-a]pyrazin-5-yl)benzoic acid]	6	16
O=C(O)Cn1cc(-c2cnc(N3CCOCC3)c3nc(C#Cc4ccc5ccccc5n4)cn23)cn1 [Cpd 9, 2-(4-(8-Morpholino-2-(quinolin-2-ylethynyl)imidazo[1,2-a]pyrazin-5-yl)-1H-pyrazol-1-yl)acetic acid]	1	2
O=C(O)c1ccc(-c2cnc(N3CCOCC3)c3nc(C#Cc4ccccn4)cn23)cc1 [Cpd 10, 4-(8-Morpholino-2-(pyridin-2-ylethynyl)imidazo[1,2-a]pyrazin-5-yl)benzoic acid]	12	16
O=C(O)c1ccc(-c2cnc(N3CCOCC3)c3nc(C#Cc4nc5ccccc5s4)cn23)cc1 [Cpd 11, 4-(2-(Benzo[d]thiazol-2-ylethynyl)-8-morpholinoimidazo[1,2-a]pyrazin-5-yl)benzoic acid]	7	9
CS(=O)(=O)NC(=O)c1ccc(-c2cnc(N3CCOCC3)c3nc(CSc4ccc5ccccc5n4)cn23)cc1 [Cpd 12, N-(Methylsulfonyl)-4-(8-morpholino-2-((quinolin-2-ylthio)methyl)imidazo[1,2-a]pyrazin-5-yl)benzamide]	2	4
O=C(O)c1ccc(-c2cnc(N3CCOCC3)c3nc(CCc4ccc5ccccc5n4)cn23)cc1 [Cpd 17, 4-(8-Morpholino-2-(2-(quinolin-2-yl)ethyl)imidazo[1,2-a]pyrazin-5-yl)benzoic acid trifluoroacetic acid salt]	3	3
CS(=O)(=O)NC(=O)c1ccc(-c2cnc(N3CCOCC3)c3nc(CCc4ccc5ccccc5n4)cn23)cc1 [Cpd 61, N-(Methylsulfonyl)-4-(8-morpholino-2-(2-(quinolin-2-yl)ethyl)imidazo[1,2-a]pyrazin-5-yl)benzamide hydrochloric acid salt]		6

Second part, the compound after the results:

IC50 [1] [nM]	IC50 [2] [nM]	SMILES
30	20	OC(c1ccc(-c2cnc(N3CCOCC3)c3nc(/C=C/c4ccc5ccccc5n4)cn23)cc1)(C(F)(F)F)C(F)(F)F [Cpd 2, (E)-1,1,1,3,3,3-hexafluoro-2-(4-(8-morpholino-2-(2-(quinolin-2-yl)vinyl)imidazo[1,2-a]pyrazin-5-yl)phenyl)propan-2-ol]
5	9	O=C(O)c1ccc(-c2cnc(N3CCOCC3)c3nc(/C=C/c4ccc5ccccc5n4)cn23)cc1F [Cpd 3, (E)-2-Fluoro-4-(8-morpholino-2-(2-(quinolin-2-yl)vinyl)imidazo[1,2-a]pyrazin-5-yl)benzoic acid hydrochloric acid salt]
30	51	CC(C)[C@H](Nc1ccc(-c2cnc(N3CCOCC3)c3nc(/C=C/c4ccc5ccccc5n4)cn23)cc1)C(=O)O [Cpd 15, (S,E)-3-Methyl-2-(4-(8-morpholino-2-(2-(quinolin-2-yl)vinyl)imidazo[1,2-a]pyrazin-5-yl)phenylamino)butanoic acid trifluoroacetic acid salt]
	16	CS(=O)(=O)NC(=O)c1ccc(-c2cnc(N3CCOCC3)c3nc(/C=C/c4ccc5ccccc5n4)cn23)cc1 [Cpd 62, (E)-N-(Methylsulfonyl)-4-(8-morpholino-2-(2-(quinolin-2-yl)vinyl)imidazo[1,2-a]pyrazin-5-yl)benzamide hydrochloric acid salt]
